Experimental data reported in ChEMBL document CHEMBL3817806, “Novel benzimidazol-2-ylidene carbene precursors and their silver(I) complexes: Potential antimicrobial agents” (2016).
Values after ≈ are worked out from the molar mass of the structure shown.

How the values were obtained:
Format in all cases: functional
Pseudomonas aeruginosa = test: Antibacterial activity against Pseudomonas aeruginosa ATCC 27853 after 16 to 20 hrs by agar dilution method
Candida albicans = test: Antifungal activity against Candida albicans ATCC 10231 after 48 hrs by agar dilution method; conditions: ATCC 10231, 48 h
Staphylococcus aureus = test: Antibacterial activity against Staphylococcus aureus ATCC 29213 after 16 to 20 hrs by agar dilution method
Escherichia coli = test: Antibacterial activity against Escherichia coli ATCC 25922 after 16 to 20 hrs by agar dilution method
Candida tropicalis = test: Antifungal activity against Candida tropicalis ATCC 13803 after 48 hrs by agar dilution method; conditions: ATCC 13803, 48 h
Enterococcus faecalis = test: Antibacterial activity against Enterococcus faecalis ATCC 29212 after 16 to 20 hrs by agar dilution method

Row | SMILES | MIC (Pseudomonas aeruginosa) | MIC (Candida albicans) | MIC (Staphylococcus aureus) | MIC (Escherichia coli) | MIC (Candida tropicalis) | MIC (Enterococcus faecalis)
1 | CCOc1ccccc1OCCn1c[n+](Cc2ccc(C(C)(C)C)cc2)c2ccccc21.[Br-] | 400 µg/mL | 50 µg/mL | 50 µg/mL | 50 µg/mL | 50 µg/mL | 200 µg/mL
2 | CCOc1ccccc1OCCn1c[n+](CCOC)c2ccccc21.[Br-] | 800 µg/mL | 800 µg/mL | 800 µg/mL | 800 µg/mL | 800 µg/mL | 800 µg/mL
3 | CCOc1ccccc1OCCn1c[n+](Cc2ccc(C(C)C)cc2)c2ccccc21.[Br-] | 800 µg/mL | 400 µg/mL | 800 µg/mL | 800 µg/mL | 400 µg/mL | 800 µg/mL
4 | CCCC[n+]1cn(CCOc2ccccc2OCC)c2ccccc21.[Br-] | 50 µg/mL | 25 µg/mL | 50 µg/mL | 50 µg/mL | 25 µg/mL | 50 µg/mL
5 | CCOc1ccccc1OCCn1c[n+](Cc2c(C)c(C)cc(C)c2C)c2ccccc21.[Br-] | 800 µg/mL | 400 µg/mL | 400 µg/mL | 400 µg/mL | 400 µg/mL | 800 µg/mL
6 | CCOc1ccccc1OCCn1c[n+](CCOc2ccccc2OCC)c2ccccc21.[Br-] | 400 µg/mL | 200 µg/mL | 200 µg/mL | 200 µg/mL | 200 µg/mL | 400 µg/mL
7 | CCOc1ccccc1OCCn1c[n+](Cc2c(C)cc(C)cc2C)c2ccccc21.[Br-] | 800 µg/mL | 50 µg/mL | 50 µg/mL | 50 µg/mL | 50 µg/mL | 800 µg/mL
8 | CCOc1ccccc1OCCn1c[n+](Cc2cccc(OC)c2)c2ccccc21.[Cl-] | 800 µg/mL | 800 µg/mL | 800 µg/mL | 800 µg/mL | 800 µg/mL | 800 µg/mL
9 | CC1(C)S[C@@H]2[C@H](NC(=O)[C@H](N)c3ccccc3)C(=O)N2[C@H]1C(=O)O [AMPICILLIN] | – | – | 3.12 µg/mL (≈ 8.93 µM) | 3.12 µg/mL (≈ 8.93 µM) | – | 1.56 µg/mL (≈ 4.46 µM)
10 | O=C(O)c1cn(C2CC2)c2cc(N3CCNCC3)c(F)cc2c1=O [CIPROFLOXACIN] | 3.12 µg/mL (≈ 9.42 µM) | – | 0.39 µg/mL (≈ 1.18 µM) | – | – | 0.78 µg/mL (≈ 2.35 µM)
11 | OC(Cn1cncn1)(Cn1cncn1)c1ccc(F)cc1F [FLUCONAZOLE] | – | 3.12 µg/mL (≈ 10.2 µM) | – | – | 3.12 µg/mL (≈ 10.2 µM) | –
